Reference: PMC8459971, “Evaluation of the hepatotoxicity of the novel GPR40 (FFAR1) agonist CPL207280 in the rat and monkey” (PLoS ONE, 2021)
“And” between values parts separate entries of the source, which are not always exact repeats. Equal values may be shown once. Read-outs that look alike come from different tables or passages of the source.

Key:
[1] = Stability in microsomes, mouse; assay type: in vitro ADME; settings: for average DEG [%]: mouse microsomes, with cofactors
Procedure: (§1) The final incubation volume was 500 μL. Two control compounds (verapamil and donepezil) were included for each microsomal species, along with the appropriate vehicle control. The reactions were terminated by transferring 50 μL of incubate to 100 μL methanol containing an internal standard (metoprolol) at appropriate time points (0, 10, 20, 40, 60, and 120 min for the test compound and 0, 5, 10, 20, 40, and 60 min for the control compounds). The termination plates were centrifuged at 4000 x g at 4°C for 30 min to precipitate the protein. The supernatants were then collected for analysis, and LC-MS/MS was used for detection purposes. The system consisted of an Acquity™ Binary Solvent Manager, Acquity™ 4-position heated column manager, 2777 Ultra High Pressure Autosampler, and a Xevo-TQ MS triple quadrupole mass spectrometer (Waters Ltd., Herts, UK). This process was carried out twice.

[2] = Stability in microsomes, human; assay type: in vitro ADME; settings: for average DEG [%]: human microsomes, with cofactors
Procedure: as §1

[3] = target: T1, OAT2v1 (Homo sapiens, UniProt Q9Y694); assay: Uptake transporter inhibition assay, OAT2v1; assay type: cell-based; settings: for Accumulation (counts per minute; CPM) HEK293FT-MOCK / Accumulation (counts per minute; CPM) HEK293FT-OAT2v1: OAT2v1
T1 construct: expressed in transfected cells; host or cells: HEK cells
T1 sequence (Q9Y694 1-546 isoform Q9Y694-2): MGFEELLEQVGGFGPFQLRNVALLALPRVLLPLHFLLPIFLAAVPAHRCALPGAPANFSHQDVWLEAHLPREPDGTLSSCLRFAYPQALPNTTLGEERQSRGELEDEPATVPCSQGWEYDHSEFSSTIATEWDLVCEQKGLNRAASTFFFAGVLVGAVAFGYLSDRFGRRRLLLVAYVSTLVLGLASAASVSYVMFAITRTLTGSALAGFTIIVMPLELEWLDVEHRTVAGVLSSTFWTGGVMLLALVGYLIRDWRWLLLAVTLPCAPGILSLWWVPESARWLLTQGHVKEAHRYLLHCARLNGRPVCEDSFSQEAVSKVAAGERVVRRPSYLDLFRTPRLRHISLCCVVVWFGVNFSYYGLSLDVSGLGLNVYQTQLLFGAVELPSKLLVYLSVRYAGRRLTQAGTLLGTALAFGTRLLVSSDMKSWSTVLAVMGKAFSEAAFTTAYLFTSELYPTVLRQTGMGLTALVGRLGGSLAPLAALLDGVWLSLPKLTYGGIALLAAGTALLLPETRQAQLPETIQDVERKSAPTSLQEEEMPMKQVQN
Procedure: For the uptake transporter inhibition assay, cells were washed twice with 100 μL of the appropriate buffer (HK, pH 7.4) for OATP1B1, followed by HBSS (pH 7.4) for (NTCP, OAT1, OAT2v1, OATP1A2, and OATP1B3). Uptake experiments were carried out at 37 ± 1°C in 50 μL of the respective buffer containing the probe substrate and the compound or solvent.

[4] = Single-dose pharmacokinetics in rats (p.o. and i.v.); assay type: in vivo, rat; parameters: plasma conc: unit not given here
[5] = target: MRP2 (Homo sapiens, UniProt Q92887); assay: Vesicular transport inhibition assay, MRP2; settings: for Accumulation (counts per minute; CPM) with AMP / Accumulation (counts per minute; CPM) with ATP: MRP2;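 also: membrane vesicles with probe substrate plus 2 mM glutathione, incubated with 4 mM ATP or AMP (AMP as background control), vesicle-retained substrate measured by liquid scintillation counting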;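 as to Accumulation (counts per minute; CPM) with AMP: ATP 4 mM vs AMP background separates transporter uptake from diffusion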;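 as to Accumulation (counts per minute; CPM) with ATP: ATP 4 mM vs AMP background separates transporter uptake from diffusion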
Procedure: In the vesicular transport inhibition assay (for BSEP, MRP) compounds were incubated with membrane vesicle preparations and the probe substrate. Incubations were carried out in the presence of 4 mM ATP or AMP to distinguish between transporter-mediated uptake and passive diffusion into the vesicles. For MRP2 and MRP3, reactions were carried out in the presence of 2 mM glutathione. Compounds were added to the reaction mixture in 0.75 μL of solvent (1% of the final incubation volume). […] Reactions were initiated by the addition of 25 μL of 12 mM MgATP (or 12 mM AMP in assay buffer as a background control) and preincubated separately. Reactions were quenched by the addition of 200 μL of ice-cold washing buffer and immediate filtration via glass fiber filters mounted on a 96-well plate (filter plate). The filters were washed (5 × 200 μL of ice-cold washing buffer), dried, and the amount of substrate inside the filtered vesicles was determined by liquid scintillation counting.

[6] = Pharmacokinetics in mice, serum and liver concentrations; settings: for serum conc: mouse, 3 mg/kg p.o., individual animals, 3 mg/kg
Procedure: The mice were separated into four groups of 32 mice per group. […] At time point t = 0, animals received a single dose of the compounds orally. […] Four hours after drug administration, the animals received standard chow. […] After solubilization in extraction buffer, the solutions were shaken for 1 min and then centrifuged for 4 min (4000 x g).

[7] = Mouse (CD) microsomes, mean n = 2
[8] = rat, dose 200 mg/kg, Day 1, individual animals, 200 mg/kg
[9] = summary comparison CPL207280 vs TAK-875

MRP2, sequence (Q92887 whole entry, the tested form may be a part): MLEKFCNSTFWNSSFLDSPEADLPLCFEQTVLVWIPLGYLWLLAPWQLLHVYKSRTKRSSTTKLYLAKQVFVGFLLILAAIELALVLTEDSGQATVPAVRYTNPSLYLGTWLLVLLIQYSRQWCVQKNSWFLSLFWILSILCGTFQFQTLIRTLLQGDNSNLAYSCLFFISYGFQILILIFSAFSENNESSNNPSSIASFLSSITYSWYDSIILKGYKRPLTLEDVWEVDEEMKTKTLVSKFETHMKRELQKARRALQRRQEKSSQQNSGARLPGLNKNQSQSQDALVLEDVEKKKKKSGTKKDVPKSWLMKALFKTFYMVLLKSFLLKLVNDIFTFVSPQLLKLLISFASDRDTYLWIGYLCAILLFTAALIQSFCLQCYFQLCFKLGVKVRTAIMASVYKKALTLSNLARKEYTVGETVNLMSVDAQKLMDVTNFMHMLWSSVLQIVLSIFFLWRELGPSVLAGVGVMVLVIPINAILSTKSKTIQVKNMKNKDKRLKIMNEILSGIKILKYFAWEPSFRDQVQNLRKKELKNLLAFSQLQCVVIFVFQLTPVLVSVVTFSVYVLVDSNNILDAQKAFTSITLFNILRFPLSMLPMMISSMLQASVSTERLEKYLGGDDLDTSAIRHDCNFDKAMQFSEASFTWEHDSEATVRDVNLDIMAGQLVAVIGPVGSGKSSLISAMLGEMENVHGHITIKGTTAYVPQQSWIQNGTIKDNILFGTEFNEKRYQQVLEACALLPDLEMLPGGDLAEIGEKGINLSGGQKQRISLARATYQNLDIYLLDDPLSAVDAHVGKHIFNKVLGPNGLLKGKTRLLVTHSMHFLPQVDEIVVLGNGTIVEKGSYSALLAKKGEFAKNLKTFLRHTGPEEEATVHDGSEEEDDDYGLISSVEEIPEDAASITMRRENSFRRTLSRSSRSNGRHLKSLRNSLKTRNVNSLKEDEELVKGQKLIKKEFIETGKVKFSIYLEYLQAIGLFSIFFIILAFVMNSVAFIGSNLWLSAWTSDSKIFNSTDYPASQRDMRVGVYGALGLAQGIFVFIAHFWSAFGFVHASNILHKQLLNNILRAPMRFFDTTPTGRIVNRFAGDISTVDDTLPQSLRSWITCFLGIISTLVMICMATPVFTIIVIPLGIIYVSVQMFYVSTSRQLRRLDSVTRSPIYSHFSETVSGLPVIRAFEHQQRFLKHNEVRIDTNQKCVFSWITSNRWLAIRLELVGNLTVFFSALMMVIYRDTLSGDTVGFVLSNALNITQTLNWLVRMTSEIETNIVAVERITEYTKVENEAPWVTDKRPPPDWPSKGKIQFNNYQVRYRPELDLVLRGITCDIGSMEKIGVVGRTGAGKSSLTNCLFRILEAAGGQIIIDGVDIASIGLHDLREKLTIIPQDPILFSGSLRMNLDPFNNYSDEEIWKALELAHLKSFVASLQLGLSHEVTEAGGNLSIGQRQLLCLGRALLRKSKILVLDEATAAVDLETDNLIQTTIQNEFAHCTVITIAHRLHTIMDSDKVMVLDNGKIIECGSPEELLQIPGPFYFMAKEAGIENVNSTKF

## CC#C[C@@H](CC(=O)O)c1ccc(OCC(C)=C(C)C)cc1 [CPL207280]
[1]; [7]
  half-life at 3 μM: 116 min
  microsomal CLint at 3 μM: 11.9 µL/min/mg
[1]; 0 min
  average DEG [%]: 100.0%
[1]; 20 min
  average DEG [%]: 83.3%
[1]; 40 min
  average DEG [%]: 69.8%
[1]; 60 min
  average DEG [%]: 71.2%
[2]; Human microsomes, mean n = 2
  half-life at 3 μM: 28 min
  microsomal CLint at 3 μM: 49.2 µL/min/mg
[2]; based on the Clint values from different species, reference ranges by Cyprotex (human range given in legend)
  stability classification in microsomes: unstable compound
[2]; 0 min
  average DEG [%]: 100.0%
[2]; 20 min
  average DEG [%]: 45.8942%
[2]; 40 min
  average DEG [%]: 32.2635%
[2]; 60 min
  average DEG [%]: 21.8%
[3]
  fold less inhibitory potency than TAK-875, OAT2v1: at least 10 fold
[3]; conc 0.10 µM
  Accumulation (counts per minute; CPM) HEK293FT-MOCK: 34 CPM and 30 CPM
  Accumulation (counts per minute; CPM) HEK293FT-OAT2v1: 4632 CPM and 4226 CPM
[3]; conc 1.00 µM
  Accumulation (counts per minute; CPM) HEK293FT-MOCK: 35 CPM and 32 CPM
  Accumulation (counts per minute; CPM) HEK293FT-OAT2v1: 4766 CPM and 4500 CPM
[3]; conc 3.00 µM
  Accumulation (counts per minute; CPM) HEK293FT-MOCK: 30 CPM and 23 CPM
  Accumulation (counts per minute; CPM) HEK293FT-OAT2v1: 4371 CPM and 4417 CPM
[3]; conc 10.00 µM
  Accumulation (counts per minute; CPM) HEK293FT-MOCK: 27 CPM and 18 CPM
  Accumulation (counts per minute; CPM) HEK293FT-OAT2v1: 4079 CPM and 4225 CPM
[3]; conc 30.00 µM
  Accumulation (counts per minute; CPM) HEK293FT-MOCK: 32 CPM and 37 CPM
  Accumulation (counts per minute; CPM) HEK293FT-OAT2v1: 3998 CPM and 4091 CPM
[3]; conc 100.00 µM
  Accumulation (counts per minute; CPM) HEK293FT-MOCK: 28 CPM and 36 CPM
  Accumulation (counts per minute; CPM) HEK293FT-OAT2v1: 3763 CPM and 3594 CPM
[3]; conc 300.00 µM
  Accumulation (counts per minute; CPM) HEK293FT-MOCK: 35 CPM and 25 CPM
  Accumulation (counts per minute; CPM) HEK293FT-OAT2v1: 2566 CPM and 2951 CPM
[4]; Wistar Han, rat, plasma, oral, 200 mg/kg, rat, dose 200 mg/kg, Day 1, individual animals, read-out: exposure - AUC
  AUC: 1240 µg·h/mL
[4]; rat, 3 mg/kg i.v., 0.08 h, single animals, 3 mg/kg
  plasma conc: 18185.2 and 14086.9 and 17991
[4]; rat, 3 mg/kg i.v., 0.5 h, single animals, 3 mg/kg
  plasma conc: 13324.4 and 11131.5 and 13374.4
[4]; rat, 3 mg/kg i.v., 1 h, single animals, 3 mg/kg
  plasma conc: 9899.4 and 7427.8 and 10049.5
[4]; rat, 3 mg/kg i.v., 2 h, single animals, 3 mg/kg
  plasma conc: 3412.2 and 2931.7 and 2551.4
[4]; rat, 3 mg/kg i.v., 4 h, single animals, 3 mg/kg
  plasma conc: 1459.2 and 957.7 and 1370.6
[4]; rat, 3 mg/kg i.v., 7 h, single animals, 3 mg/kg
  plasma conc: 919.9 and 275.5 and 163.6 and 442.9
[4]; rat, 3 mg/kg i.v., 12 h, single animals, 3 mg/kg
  plasma conc: 109.4 and 40.7 and 9.1 and 38.7
[4]; rat, 3 mg/kg p.o., 0.5 h, single animals, 3 mg/kg
  plasma conc: 1251.2 and 962.3 and 1047.3 and 2942.9 and 2148.4
[4]; rat, 3 mg/kg p.o., 1 h, single animals, 3 mg/kg
  plasma conc: 1116.7 and 1016.5 and 1560.5 and 2895.7 and 1904.8
[4]; rat, 3 mg/kg p.o., 2 h, single animals, 3 mg/kg
  plasma conc: 850.9 and 932.5 and 1176.4 and 3463.8 and 1438.7
[4]; rat, 3 mg/kg p.o., 4 h, single animals, 3 mg/kg
  plasma conc: 878.1 and 1000.4 and 1366.6 and 4024.4 and 840.4
[4]; rat, 3 mg/kg p.o., 8 h, single animals, 3 mg/kg
  plasma conc: 569.6 and 2137.2 and 517.2 and 1993.4 and 909.2
[4]; rat, 3 mg/kg p.o., 12 h, single animals, 3 mg/kg
  plasma conc: 324.7 and 347.6 and 456.6 and 204.4 and 474.2
[4]; rat, 3 mg/kg p.o., 24 h, single animals, 3 mg/kg
  plasma conc: 48.1 and 66.5 and 10.8 and 7 and 230.9
[4]; [8]
  Cmax: 183679 ng/mL and 165539 ng/mL and 190632 ng/mL and 189701 ng/mL and 159390 ng/mL
  exposure - AUC: 1896 µg·h/mL and 1692 µg·h/mL and 1420 µg·h/mL and 1892 µg·h/mL and 1506 µg·h/mL
[4]; rat, plasma, 200 mg/kg, rat, dose 200 mg/kg, Day 1, individual animals, read-out: Cmax
  Cmax: 198000 ng/mL
[4]; rat, plasma, iv, 3 mg/kg, rat, 3 mg/kg i.v., 0.08 h, single animals, read-out: plasma conc
  concentration at 0.08 h: 19200 ng/mL
[4]; rat, plasma, iv, 3 mg/kg, rat, 3 mg/kg i.v., 0.5 h, single animals, read-out: plasma conc
  concentration at 0.5 h: 16300 ng/mL
[4]; rat, plasma, iv, 3 mg/kg, rat, 3 mg/kg i.v., 1 h, single animals, read-out: plasma conc
  concentration at 1 h: 10900 ng/mL
[4]; rat, plasma, iv, 3 mg/kg, rat, 3 mg/kg i.v., 2 h, single animals, read-out: plasma conc
  concentration at 2 h: 3720 ng/mL
[4]; rat, plasma, iv, 3 mg/kg, rat, 3 mg/kg i.v., 4 h, single animals, read-out: plasma conc
  concentration at 4 h: 1570 ng/mL
[4]; rat, plasma, iv, 3 mg/kg, rats, 3 mg/kg i.v.
  Tmax: 4.98 min
[4]; rat, plasma, iv, 3 mg/kg, rats, 3 mg/kg i.v., n = 5, read-out: Cmax
  Cmax: 17400 ± 2250 ng/mL
[4]; rat, plasma, iv, 3 mg/kg, rats, 3 mg/kg i.v., read-out: AUC
  AUC: 27.1 ± 1.62 µg·h/mL
[4]; rat, plasma, oral, rats, 3 mg/kg p.o. vs i.v., read-out: F (bioavailability)
  bioavailability: 63%
[4]; rat, plasma, po, 3 mg/kg, rats, 3 mg/kg p.o.
  Tmax: 60 min
[4]; rat, plasma, po, 3 mg/kg, rats, 3 mg/kg p.o., read-out: AUC
  AUC: 17.6 ± 4.08 µg·h/mL
[4]; rat, plasma, rats, 3 mg/kg
  Vd: 0.2 ± 0.01 L/kg
  k el: 0.000144 s⁻¹
[4]; rats, 3 mg/kg
  greater Kel than TAK-875: 2 x
[4]; [9]
  Bioavailability in rats: >
  Exposure in rat plasma for the same dose: ≥
[5]; conc 0.10 µM
  Accumulation (counts per minute; CPM) with AMP: 198 CPM and 164 CPM
  Accumulation (counts per minute; CPM) with ATP: 2936 CPM and 2989 CPM
[5]; conc 1.00 µM
  Accumulation (counts per minute; CPM) with AMP: 160 CPM and 140 CPM
  Accumulation (counts per minute; CPM) with ATP: 2976 CPM and 3333 CPM
[5]; conc 3.00 µM
  Accumulation (counts per minute; CPM) with AMP: 225 CPM and 205 CPM
  Accumulation (counts per minute; CPM) with ATP: 3200 CPM and 3253 CPM
[5]; conc 10.00 µM
  Accumulation (counts per minute; CPM) with AMP: 218 CPM and 206 CPM
  Accumulation (counts per minute; CPM) with ATP: 3353 CPM and 3206 CPM
[5]; conc 30.00 µM
  Accumulation (counts per minute; CPM) with AMP: 203 CPM and 192 CPM
  Accumulation (counts per minute; CPM) with ATP: 3191 CPM and 3541 CPM
[5]; conc 100.00 µM
  Accumulation (counts per minute; CPM) with AMP: 195 CPM and 185 CPM
  Accumulation (counts per minute; CPM) with ATP: 3680 CPM and 3660 CPM
[5]; conc 300.00 µM
  Accumulation (counts per minute; CPM) with AMP: 129 CPM and 125 CPM
  Accumulation (counts per minute; CPM) with ATP: 3852 CPM and 4100 CPM
[5]; vesicles, up to 300μM, n = 2
  MRP2 Estimated IC50 (95% CI of IC50): no affinity
[6]; mice, single oral dose 3 mg/kg, 15 min to 24 h
  distribution between liver and serum: serum was observed to be the central compartment
[6]; 0.5 h
  serum conc: 6337 and 10977.8 and 8698.6 and 7860.2
[6]; 1 h
  serum conc: 14190.2 and 17872.7 and 14644.7 and 11914.7
[6]; 2 h
  serum conc: 4293.9 and 8727 and 12877.2 and 5407.3
[6]; 4 h
  serum conc: 1048.2 and 2271.3 and 3572 and 4146.1
[6]; 7 h
  serum conc: 456.3 and 1659.3 and 757.1 and 1712.9
[6]; 12 h
  serum conc: 198.5 and 247.1 and 27.4 and 10.5
[6]; 24 h
  serum conc: 14.5 and 37.9 and 532.6 and 298
[6]; [9]
  Penetration into the liver: <
